From ChEMBL document CHEMBL6177940, “Therapeutic upregulation of DNA repair pathways: strategies and small molecule activators” (RSC Med Chem, 2024) come the findings set out here.

Some results are limits rather than exact numbers.

Experiment [1] can be described thus: Activation of Flag/His-tagged human recombinant OGG1 (1 to 345 residues) by fluorescence based analysis.
In another experiment the test system is HCC1806. Put plainly: Antiproliferative activity against human HCC1806 cells assessed as reduction in cell viability incubated for 72 hrs by MTT assay. The class given is functional, cell-based. The settings on record: HCC1806, 72 h. A general note: Formazan colour is commonly taken as a measure of viable cells.
The nature of experiment [2]: Activation of MTH1 (unknown origin). Also on record: species or system Homo sapiens.
The nature of experiment [3]: Activation of rat liver AMPK.
Experiment [4] is described as follows: Upregulation of BRCA1 expression in mouse Bone marrow cells at 5 uM. The class given is functional, Bone marrow cell.
Experiment [5] can be described thus: Upregulation of BRCA2 expression in mouse Bone marrow cells at 5 uM. The class given is functional, Bone marrow cell.
Experiment [6] can be described thus: Upregulation of OGG1 expression in mouse MCT cells assessed as fold increase at 2 mM.
Experiment [7] is filed under the species Mus musculus. Put plainly: Reversal of oxidative stress-induced DNA damage in mouse model assessed as increase in expression of APE1 by measuring fold change.
Experiment [8] is filed under the species Mus musculus. Put plainly: Reversal of oxidative stress-induced DNA damage in mouse model assessed as increase in expression of XRCC1 by measuring fold change.
The species entered for experiment [9] is Mus musculus. Put plainly: Reversal of oxidative stress-induced DNA damage in mouse model assessed as increase in expression of OGG1 by measuring fold change.
The nature of experiment [10]: Induction of DNA repair activity in human SUM149PT cells harboring BRCA1 mutant co-expressing GFP reporter gene at 1 uM relative to control. The class given is functional. Background: Reporter assays use an easily measured gene product as a stand-in for the process of interest.
Experiment [11] is described as follows: Induction of DNA repair activity in human SUM149PT cells harboring BRCA1 mutant co-expressing GFP reporter gene at 100 uM relative to control. The class given is functional.
The subject of another experiment is HCC1937. Put plainly: Antitumor activity against human HCC1937 cells harboring BRAC1 mutant xenografted in NOD/SCID mouse assessed as increase in survival rate at 250 mg/kg, ip measured after 60 days relative to control. Format: functional. The settings on record: time 60 day.
The target of experiment [12] is T1, NAD-dependent protein deacetylase sirtuin-1 (Homo sapiens) (UniProt Q96EB6).
T1 sequence (whole entry): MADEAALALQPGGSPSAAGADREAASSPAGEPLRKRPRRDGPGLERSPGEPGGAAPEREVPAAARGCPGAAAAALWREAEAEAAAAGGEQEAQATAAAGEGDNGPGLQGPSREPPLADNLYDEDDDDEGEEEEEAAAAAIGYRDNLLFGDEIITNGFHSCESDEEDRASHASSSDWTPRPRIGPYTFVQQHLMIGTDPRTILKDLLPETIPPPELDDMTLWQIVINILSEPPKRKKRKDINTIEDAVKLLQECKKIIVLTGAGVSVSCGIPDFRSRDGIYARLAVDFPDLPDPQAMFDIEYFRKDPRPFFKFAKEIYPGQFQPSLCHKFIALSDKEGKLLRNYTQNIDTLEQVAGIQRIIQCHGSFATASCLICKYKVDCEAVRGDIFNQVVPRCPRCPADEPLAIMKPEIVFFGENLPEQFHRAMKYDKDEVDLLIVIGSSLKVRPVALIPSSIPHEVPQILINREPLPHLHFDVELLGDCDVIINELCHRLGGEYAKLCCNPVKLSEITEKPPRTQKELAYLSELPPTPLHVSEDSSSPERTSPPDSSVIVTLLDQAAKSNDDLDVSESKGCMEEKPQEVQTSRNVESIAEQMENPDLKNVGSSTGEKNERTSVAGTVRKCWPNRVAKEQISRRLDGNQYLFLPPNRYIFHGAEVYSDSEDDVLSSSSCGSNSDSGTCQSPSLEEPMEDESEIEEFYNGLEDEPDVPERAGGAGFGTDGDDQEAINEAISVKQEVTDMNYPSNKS
Put plainly: Activation of N-terminal Hex/Histidine-tagged human SIRT1 extracted from Escherichia coli BL21 (DE3) by Fluorescence polarization assay. The settings on record: filed as activator.

Experiment [13] is described as follows: Upregulation of OGG1 level in human A549 cells at 30 uM measured for 48 hrs relative to control. The class given is functional.

In the case of `Cc1cc(N[C@@H](C)C(=O)Nc2ccccc2)nc(Nc2ccccc2)n1`, the EC50 – broadly, the concentration that produces a half-maximal response – in experiment [1] came to 4.1 µM.
Consider `O=C(Nc1ccc(CN2CCOCC2)c(C(F)(F)F)c1)c1ccc(C#Cc2cccc3cnccc23)cn1`, for which, in the experiment with HCC1806, the IC50 (usually the point on the concentration scale where inhibition reaches its midpoint) was determined as 10 µM. Besides, the midpoint of the response in experiment [2], the EC50, lay at 5.5 µM.
As to `N#Cc1c(O)c2c(-c3ccc(-c4ccccc4O)cc3)csc2[nH]c1=O`, in experiment [3], the EC50 is 0.116 µM.
As for `COc1cc(/C=C/C(=O)CC(=O)/C=C/c2ccc(O)c(OC)c2)ccc1O` [CURCUMIN], the Activity in experiment [4] and in experiment [5] was 170% in each case.
Regarding `NC(=O)c1ncn([C@H]2O[C@@H](COP(=O)(O)O)[C@H](O)[C@@H]2O)c1N`, in [6], the “fold change (FC)” value is listed as 5.
As to `O=c1c(O)c(-c2ccc(O)c(O)c2)oc2cc(O)cc(O)c12` [QUERCETIN], the “fold change (FC)” value in the experiment listed under Mus musculus [7], in the experiment listed under Mus musculus [8] and in the experiment listed under Mus musculus [9] was 2 throughout.
In [10], `CC(=O)c1ccc(S(=O)(=O)NC(=O)NC2CCCCC2)cc1` [ACETOHEXAMIDE] yielded an Activity of 90%.
In the case of `Cc1cnc(N2CCN3CCCC3C2)nc1Oc1ccc(-n2ccnc2)cc1` (stereo not given), the EC50 in experiment [1] was 4.6 µM.
For the compound `NC(CO)C(=O)NNCc1ccc(O)c(O)c1O` (stereo not given) [BENSERAZIDE], the Activity in [11] is given as 60%; in the experiment with HCC1937, “<=70%”.
As for `Cc1nc(-c2cccnc2)sc1C(=O)Nc1ccccc1-c1cn2c(CN3CCOCC3)csc2n1`, in experiment [12], the EC1.5 turned out to be 0.43 µM.
The same measure, in the same setting: the same measure for `COc1cc(C(=O)Nc2ccccc2-c2cn3c(CN4CCNCC4)csc3n2)cc(OC)c1OC`: 2.9 µM.
Take `CNc1nnc(C)c2c1cc(-c1ccc(F)cc1)n2C`: in experiment [1], the EC50 turned out to be 5.1 µM.
In the case of `OC(Cn1ccnc1)(c1ccc(Cl)cc1Cl)C1CCCCC1` (stereo not given), in experiment [1], the EC50 came out at 5 µM. Moreover, the Activity in experiment [13] is listed as 142.3%.
`Nc1ncnc2c1ncn2[C@H]1O[C@@H](COP(=O)(O)O)[C@H](O)[C@@H]1O` had an EC50 in [3] of 6 µM.
